Holding throughout (type): biochemical
Experiment [1] deals with T1, p38 α (Homo sapiens, UniProt Q16539).
T1 construct: gene MAPK14
Put plainly: ADP-Glo kinase assay (Promega CMGC-1), % inhibition at […]. (ADP-Glo first removes unused ATP, then detects ADP through luciferase.)

For experiment [2], the target named is T1, p38 α. Kind of experiment: ADP-Glo kinase assay (Promega CMGC-1 kinase selectivity profiling system), dose response […].
For experiment [3], the target named is T1, p38 α. Put plainly: ADP-Glo kinase assay (Promega CMGC-1 kinase selectivity profiling system).

Here are results for three molecules from publication PMC5751305, “In Silico Screening and In Vitro Activity Measurement of Javamide Analogues as Potential p38 MAPK Inhibitors” (International Journal of Molecular Sciences, 2017).

T1 sequence (Q16539 2-360): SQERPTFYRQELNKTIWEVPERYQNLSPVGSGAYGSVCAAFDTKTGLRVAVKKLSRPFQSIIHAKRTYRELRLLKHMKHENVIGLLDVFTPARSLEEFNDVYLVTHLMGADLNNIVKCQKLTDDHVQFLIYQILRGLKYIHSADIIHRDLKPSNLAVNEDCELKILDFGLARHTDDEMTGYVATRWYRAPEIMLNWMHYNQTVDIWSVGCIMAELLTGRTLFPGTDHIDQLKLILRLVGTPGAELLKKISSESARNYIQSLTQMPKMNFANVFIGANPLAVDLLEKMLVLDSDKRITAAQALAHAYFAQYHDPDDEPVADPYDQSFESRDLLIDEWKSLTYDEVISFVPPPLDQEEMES

By inhibition is commonly meant the relative decrease from the control value, in per cent. Read a low inhibition as a weak effect. For the molecule `O=C(/C=C/c1ccc(O)c(O)c1)N[C@@H](Cc1c[nH]c2ccccc12)C(=O)O` [Javamide-II, javamide-II], testing at 5 µM on p38 α [1] gave an inhibition of 31.5%.
What is called IC50 is the point on the concentration scale where inhibition reaches its midpoint. Higher therefore signals weaker potency in that assay. Regarding `CCOC(=O)[C@H](Cc1c[nH]c2ccccc12)NC(=O)/C=C/c1ccc(O)c(O)c1` [Javamide-II-ethyl, javamide-II-O-ethyl ester], the IC50 on p38 α [2] stood at 9.9 µM.
Regarding `COC(=O)[C@H](Cc1c[nH]c2ccccc12)NC(=O)/C=C/c1ccc(O)c(O)c1` [Javamide-II-methyl, Methyl (E)-(3-(3,4-dihydroxyphenyl)acryloyl) tryptophanate], half-maximal inhibition against p38 α [3] (IC50) required 12 µM. This counts as double-digit micromolar.
